Results taken from patent US12692254B2, “Benzimidazole inhibitors of PAD enzymes” (BRISTOL-MYERS SQUIBB COMPANY, priority 2018, dated 2026).
pIC50: −log10 of the molar value.

Target: human PAD4 (hPAD4) (Homo sapiens, UniProt Q9UM07)
Test: RFMS human PAD4 functional assay (rapid-fire mass spectrum)
Format: biochemical
Settings: 5 nM hPAD4 enzyme, 250 μM BAEE, 50 μM Calcium; 30 min preincubation, 90 min reaction at 37° C.
Summary of the method: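 PAD4 (10 nM) preincubated 30 min with compound (top final 50 μM), then BAEE substrate added in pH 7.5 HEPES buffer with DTT, 50 μM calcium, TPEN; 90 min at 37° C. After TCA quench, citrulline derivatized with phenyl glyoxal (4 mM final, 30 min, 37° C) and quantified by RapidFire MS against internal standard.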

Chain of human PAD4 (hPAD4) (Q9UM07 whole entry): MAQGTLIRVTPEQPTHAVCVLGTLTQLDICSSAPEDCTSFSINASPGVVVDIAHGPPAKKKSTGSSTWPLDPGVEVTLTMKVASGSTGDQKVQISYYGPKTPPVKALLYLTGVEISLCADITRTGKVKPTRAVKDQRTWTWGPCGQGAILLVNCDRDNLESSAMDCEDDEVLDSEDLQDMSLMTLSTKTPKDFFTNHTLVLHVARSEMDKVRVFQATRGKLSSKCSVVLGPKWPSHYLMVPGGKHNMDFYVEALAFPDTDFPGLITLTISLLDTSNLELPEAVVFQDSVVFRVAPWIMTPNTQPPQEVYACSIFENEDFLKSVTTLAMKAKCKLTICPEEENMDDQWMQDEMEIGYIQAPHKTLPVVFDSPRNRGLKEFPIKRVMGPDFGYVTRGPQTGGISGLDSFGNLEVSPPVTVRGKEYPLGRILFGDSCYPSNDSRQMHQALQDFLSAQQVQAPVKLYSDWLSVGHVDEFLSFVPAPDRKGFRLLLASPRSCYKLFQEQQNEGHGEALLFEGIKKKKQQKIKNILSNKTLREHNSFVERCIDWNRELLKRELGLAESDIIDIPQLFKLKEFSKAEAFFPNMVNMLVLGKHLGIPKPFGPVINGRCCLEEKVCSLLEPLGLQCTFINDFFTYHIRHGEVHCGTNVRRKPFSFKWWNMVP

Row | pIC50 | SMILES
1 | 5.73 | COc1cc(C(=O)N2C[C@H]3CC[C@@H]2[C@@H]3N)cc2nc(-c3csc4ccc(Cl)cc34)n(CC3CN(c4ccnc(C)n4)C3)c12 [Example 324, (1R,4R,7R)-2-[2-(5-chloro-1-benzothiophen-3-yl)-7-methoxy-1-{[1-(2-methylpyrimidin-4-yl)azetidin-3-yl]methyl}-1H-1,3-benzodiazole-5-carbonyl]-2-azabicyclo[2.2.1]heptan-7-amine]
2 | 6.79 | COc1cc(C(=O)N2C[C@H]3CC[C@@H]2[C@@H]3N)cc2nc(-c3cc4cccnc4n3CC3CC3)n(CC3CN(S(=O)(=O)C(F)(F)F)C3)c12 [Example 325, (1R,4R,7R)-2-{2-[1-(cyclopropylmethyl)-1H-pyrrolo[2,3-b]pyridin-2-yl]-7-methoxy-1-[(1-trifluoromethanesulfonylazetidin-3-yl)methyl]-1H-1,3-benzodiazole-5-carbonyl}-2-azabicyclo[2.2.1]heptan-7-amine]
3 | 6.71 | COc1cc(C(=O)N2CC3CCC2[C@@H]3N)cc2nc(-c3cc4cccnc4n3CC3CC3)n(CC3CN(S(=O)(=O)c4ccccc4)C3)c12 (some centres unmarked) [Example 326]
4 | 7.24 | CCS(=O)(=O)N1CC(n2c(-c3cc4cccnc4n3CC3CC3)nc3cc(C(=O)N4CC5CCC4[C@@H]5N)cc(OC)c32)C1 (stereo partly drawn) [Example 327, (1R,4R.,7R)-2-{2-[1-(cyclopropylmethyl)-1H-pyrrolo[2,3-b]pyridin-2-yl]-1-[1-(ethanesulfonyl)azetidin-3-yl]-7-methoy-1H-1,3-benzodiazole-5-carbonyl}-2-azabicyclo[2.2.1]heptan-7-amine]
5 | 6.90 | COc1cc(C(=O)N2CC3CCC2[C@@H]3N)cc2nc(-c3cc4cccnc4n3CC3CC3)n(C3CN(S(=O)(=O)C4CC4)C3)c12 (some centres unmarked) [Example 328]
6 | 6.79 | COc1cc(C(=O)N2C[C@H]3CC[C@@H]2[C@@H]3N)cc2nc(-c3cc4cccnc4n3CC3CC3)n(C3CN(S(=O)(=O)c4ccccc4)C3)c12 [Example 329, (1R,4R,7R)-2-{1-[1-(benzenesulfonyl)azetidin-3-yl]-2-[1-(cyclopropylmethyl)-1H-pyrrolo[2,3-b]pyridin-2-yl]-7-methoxy-1H-1,3-benzodiazole-5-carbonyl}-2-azabicyclo[2.2.1]heptan-7-amine]
7 | 6.74 | COc1cc(C(=O)N2C[C@H]3CC[C@@H]2[C@@H]3N)cc2nc(-c3cc4cccnc4n3CC3CC3)n(C3CN(S(C)(=O)=O)C3)c12 [Example 330, (1R,4R,7R)-2-{2-[1-(cyclopropylmethyl)-1H-pyrrolo[2,3-b]pyridin-2-yl]-1-(1-methanesulfonylazetidin-3-yl)-7-methoxy-1H-1,3-benzodiazole-5-carbonyl}-2-azabicyclo[2.2.1]heptan-7-amine]
8 | 6.72 | COc1cc(C(=O)N2C[C@H]3CC[C@@H]2[C@@H]3N)cc2nc(-c3cc4cccnc4n3CC3CC3)n(C3CN(S(=O)(=O)CC4CC4)C3)c12 [Example 331, (1R,4R,7R)-2-[1-(1-cyclopropylmethanesulfonylazetidin-3-yl)-2-[1-(cyclopropylmethyl)-1H-pyrrolo[2,3-b]pyridin-2-yl]-7-methoxy-1H-1,3-benzodiazole-5-carbonyl]-2-azabicyclo[2.2.1]heptan-7-amine]
9 | 6.66 | COc1cc(C(=O)N2C[C@H]3CC[C@@H]2[C@@H]3N)cc2nc(-c3cc4cccnc4n3CC3CC3)n(CC3CN(S(=O)(=O)C4CC4)C3)c12 [Example 332, (1R,4R,7R)-2-(1-{[1-(cyclopropanesulfonyl)azetidin-3-yl]methyl}-2-[1-(cyclopropylmethyl)-1H-pyrrolo[2,3-b]pyridin-2-yl]-7-methoxy-1H-1,3-benzodiazole-5-carbonyl)-2-azabicyclo[2.2.1]heptan-7-amine]
10 | 6.65 | COc1cc(C(=O)N2CC3CCC2[C@@H]3N)cc2nc(-c3cc4cccnc4n3CC3CC3)n(CC3CN(S(=O)(=O)c4cccc(F)c4)C3)c12 (some centres unmarked) [Example 333]
11 | 6.65 | COc1cc(C(=O)N2C[C@H]3CC[C@@H]2[C@@H]3N)cc2nc(-c3cc4cccnc4n3CC3CC3)n(CC3CN(S(=O)(=O)c4ccc(Cl)nc4)C3)c12 [Example 334, (1R,4R,7R)-2-[1-({1-[(6-chloropyridin-3-yl)sulfonyl]azetidin-3-yl}methyl)-2-[1-(cyclopropylmethyl)-1H-pyrrolo[2,3-b]pyridin-2-yl]-7-methoxy-1H-1,3-benzodiazole-5-carbonyl]-2-azabicyclo[2.2.1]heptan-7-amine]
12 | 6.61 | COc1cc(C(=O)N2C[C@H]3CC[C@@H]2[C@@H]3N)cc2nc(-c3cc4cccnc4n3CC3CC3)n(CC3CN(S(=O)(=O)C(C)C)C3)c12 [Example 335, (1R,4R,7R)-2-{2-[1-(cyclopropylmethyl)-1H-pyrrolo[2,3-b]pyridin-2-yl]-7-methoxy-1-{[1-(propane-2-sulfonyl)azetidin-3-yl)methyl}-1H-1,3-benzodiazole-5-carbonyl}-2-azabicyclo[2.2.1]heptan-7-amine]
13 | 6.51 | CCS(=O)(=O)N1CC(Cn2c(-c3cc4cccnc4n3CC3CC3)nc3cc(C(=O)N4CC5CCC4[C@@H]5N)cc(OC)c32)C1 (stereo partly drawn) [Example 336, (1R,4R.,7R)-2-{2-[1-(cyclopropylmethyl)-1H-pyrrolo[2,3-b]pyridin-2-yl]-1-{[1-(ethanesulfonyl)azetidin-3-yl]methyl}-7-methoxy-1H-1,3-benzodiazole-5-carbonyl}-2-azabicyclo[2.2,1]heptan-7-amine]
14 | 6.32 | COc1cc(C(=O)N2CC3CCC2[C@@H]3N)cc2nc(-c3cc4cccnc4n3CC3CC3)n(C3CN(S(=O)(=O)c4ccc(Cl)nc4)C3)c12 (some centres unmarked) [Example 337]
15 | 6.30 | COc1cc(C(=O)N2C[C@H]3CC[C@@H]2[C@@H]3N)cc2nc(-c3cc4cccnc4n3CC3CC3)n(CC3CN(S(C)(=O)=O)C3)c12 [Example 338, (1R,4R,7R)-2-{2-[1-(cyclopropylmethyl)-1H-pyrrolo[2,3-b]pyridin-2-yl]-1-[(1-methanesulfonylazetidin-3-yl)methyl]-7-methoxy-1H-1,3-benzodiazole-5-carbonyl}-2-azabicyclo[2.2.1]heptan-7-amine]
16 | 6.27 | COc1cc(C(=O)N2CC3CCC2[C@@H]3N)cc2nc(-c3cc4cccnc4n3CC3CC3)n(C3CN(S(=O)(=O)c4ccc(C#N)cc4)C3)c12 (stereo partly drawn) [Example 339, 4-[(3-{5-[(1R,4R,7R)-7-amino-2-azabicyclo[2.2.1]heptane-2-carbonyl]-2-[1-(cyclopropylmethyl)-1H-pyrrolo[2,3-b]pyridin-2-yl]-7-methoxy-1H-1,3-benzodiazo1-1-yl}azetidin-1-yl)sulfonyl]benzonitrile]
17 | 5.90 | COc1cc(C(=O)N2CC3CCC2[C@@H]3N)cc2nc(-c3cc4cccnc4n3CC3CC3)n(C3CN(S(=O)(=O)C(F)(F)F)C3)c12 (stereo partly drawn) [Example 340, (1R,,4R,7R)-2-{2-[1-(cyclopropylmethyl)-1H-pyrrolo[2,3-b]pyridin-2-yl]-7-methoxy-1-(1-trifluoromethanesulfonylazetidin-3-yl)-1H-1,3-benzodiazole-5-carbonyl}-2-azabicyclo[2.2.1]heptan-7-amine]
18 | 5.53 | COc1cc(C(=O)N2CCC[C@@H](N)C2)cc2nc(-c3cc4cccnc4n3CC3CC3)n(C3CN(S(C)(=O)=O)C3)c12 [Example 341, (3R)-1-{2-[1-(cyclopropylmethyl)-1H-pyrrolo[2,3-b]pyridin-2-yl]-1-(1-methanesulfonylazetidin-3-yl)-7-methoxy-IH-1,3-benzodiazole-5-carbonyl}piperidin-3-amine]
19 | 7.59 | COc1cc(C(=O)N2CC3CCC2[C@@H]3N)cc2nc(-c3cc4cccnc4n3CC3CC3)n(Cc3cnn(-c4ncc(Cl)cc4F)c3)c12 (stereo partly drawn) [Example 342, ((7R)-7-amino-2-azabicyclo[2.2.1]heptan-2-yl)(1-((1-(5-chloro-3-fluoropyridin-2-yl)-1H-pyrazol-4-yl)methyl)-2-(1-(cyclopropylmethyl)-1H-pyrrolo[2,3-b]pyridin-2-yl)-7-methoxy-1H-benzo[d]imidazol-5-yl)methanone]
20 | 6.94 | COc1ncccc1-n1cc(Cn2c(-c3cc4cccnc4n3CC3CC3)nc3cc(C(=O)N4C[C@H](N)C[C@@H](F)C4)cc(OC)c32)cn1 [Example 343, (3R,5R)-1-{2-[1-(cyclopropylmethyl)-1H-pyrrolo[2,3-b]pyridin-2-yl]-7-methoxy-1-{[1-(2-methoxypyridin-3-yl)-1H-pyrazol-4-yl]methyl}-1H-1,3-benzodiazole-5-carbonyl}-5-fluoropiperidin-3-amine]
21 | 7.41 | COc1cc(C(=O)N2C[C@H](N)C[C@@H](F)C2)cc2nc(-c3cc4cccnc4n3CC3CC3)n(Cc3cnn(-c4cccc(F)n4)c3)c12 [Example 344, (3R,5R)-1-{2-[1-(cyclopropylmethyl)-1H-pyrrolo[2,3-b]pyridin-2-yl]-1-{[1-(6-fluoropyridin-2-yl)-1H-pyrazol-4-yl]methyl}-7-methoxy-1H-1,3-benzodiazole-5-carbonyl}-5-fluoropiperidin-3-amine]
22 | 7.31 | COc1cc(C(=O)N2C[C@H](N)C[C@@H](F)C2)cc2nc(-c3cc4cccnc4n3CC3CC3)n(Cc3cnn(-c4ccc(F)cn4)c3)c12 [Example 345, (3R,5R)-1-{2-[1-(cyclopropylmethyl)-1H-pyrrolo[2,3-b]pyridin-2-yl]-1-{[1-(5-fluoropyridin-2-yl)-1H-pyrazol-4-yl]methyl}-7-methoxy-1H-1,3-benzodiazole-5-carbonyl}-5-fluoropiperidin-3-amine]
23 | 7.21 | COc1cc(C(=O)N2CC3CCC2[C@@H]3N)cc2nc(-c3cc4cccnc4n3CC3CC3)n(Cc3cnn(-c4cncc(C#N)c4)c3)c12 (stereo partly drawn) [Example 346, 5-[4-({5-[(7R)-7-amino-2-azabicyclo[2.2.1]heptane-2-carbonyl]-2-[1-(cyclopropylmethyl)-1H-pyrrolo[2,3-b]pyridin-2-yl]-7-methoxy-1H-1,3-benzodiazol-1-yl}methyl)-1H-pyrazol-1-yl]pyridine-3-carbonitrile]
